According to patent US20140179664A1, “Heterocyclyl Pyrimidine Analogues As JAK Inhibitors” (Cellzome Limited, priority 2011, published 2014):

Tested on: STAT5 phosphorylation downstream of JAK3 in human YT cells
Test: pSTAT5 cell assay (IL-2 stimulated YT cells, AlphaScreen)
Assay type: cell-based
Details: IL-2 stimulation, read-out: Inhibition values (IC50) pSTAT5
Description: STAT5 phosphorylation represents one of the proximal events in the signalling cascade downstream of JAK3 activation. Therefore STAT5 phosphorylation is an appropriate readout to assess the mechanistic effect of JAK3 inhibition. Stimulation of human YT cells, an NK-like cell line, with interleukin-2 (IL-2) results in phosphorylation of STAT5 at tyrosine residue 694 (Tyr694) that can be quantitatively measured by immunodetection with specific antibodies and an appropriate detection method, in this case AlphaScreen assay technology.
Human YT cells were grown in RPMI medium (Lonza, BE12-167) with 2 mM L-Glutamine (Invitrogen, 25030-024) and 10% heat-inactivated FBS (Invitrogen, 10106-169) and kept in a humidified incubator (37° C., 5% CO2). Cells were harvested by centrifugation, washed once with HBSS (Invitrogen, 14180-046), resuspended in HBSS at 1.5×10^6 cells/ml and 0.9×10^4 cells were seeded in 6 μl per well in a 96 well White plate (PerkinElmer, 6005569).
Test compounds were dissolved in DMSO and a 1:3 dilution series (9 steps) was prepared. To generate a dose response curve, 3 μl of fourfold concentrated compound in 4% DMSO/HBSS were added to each cell sample in the 96 well plate resulting in a final DMSO concentration of 1% DMSO. Cells were incubated for one hour in a humidified incubator (37° C., 5% CO2). To each well 3 μl of a fourfold concentrated IL-2 solution (Recombinant human IL-2, Peprotech 200-02; 120 nM solution in HBSS) was added and incubated for 30 minutes at room temperature. Cells were lysed by adding 3 μl of 5× lysis buffer (SureFire lysis buffer; Perkin Elmer, TGRS5S10K) and incubated for 10 minutes at room temperature with gentle shaking
For signal detection by AlphaScreen® technology the SureFire phospho-STAT5 (Tyr694/Tyr699) kit was used according to instructions provided by the manufacturer (Perkin Elmer, TGRS5S10K). Acceptor beads were added as recommended by the manufacturer (Reactivation buffer/Activation buffer/Acceptor beads at a ratio of 40:10:1) and incubated at room temperature for 1.5 hours with gentle shaking Then donor beads were added as recommended (Dilution buffer/Donor beads at a ratio of 20:1) and incubated at room temperature for 1.5 hours with gentle shaking Plates were read on an Envision instrument (Perkin Elmer) with the AlphaScreen protocol. Data were analysed in BioAssay using the nonlinear regression for a sigmoidal dose-response with a variable slope.

Row | IC50 [nM] | Compound
1 | 250 to 1000 | OCCn1cc(Nc2ncc(Cl)c(N[C@H](CO)c3ccccc3)n2)cn1 [Compound 9]
2 | 250 to 1000 | Cn1cc(Nc2ncc(Cl)c(N[C@H](CO)c3ccccc3)n2)cn1 [Compound 4]
3 | < 250 | OC[C@@H](Nc1nc(Nc2cnn(CC(F)F)c2)ncc1Cl)c1ccccc1F [Compound 165]
